Measurements as given in patent US20230241142A1, “USE OF A POLAR EXTRACT OF SKELETONEMA IN PHOTODYNAMIC THERAPY” (IFREMER, priority 2020, published 2023).

Legend:
Type in all cases: cell-based
[1] = tested on: normal human epidermal keratinocytes (NHEK); assay: anti-inflammatory effect: IL-6 secreted by Poly(I:C)-stimulated keratinocytes (ELISA); conditions: NHEK stimulated with Poly(I:C) 1 µg/mL + Bafilomycin 100 nM
Procedure: (§1) The anti-inflammatory properties of S. marinoï polar algae extract were evaluated on normal human epidermal keratinocytes (NHEK) These NHEK human epidermal keratinocytes were seeded in K-SFM medium supplemented with 0.25 ng/mL of EGF (Epidermal Growth Factor), 25 µg/mL of pituitary extract and 25 µg/mL of Gentamycin in 96-well plates to then be incubated at 37° C. under an atmosphere containing 5% CO2. After at least one day of culturing, the NHEK cells are pre-incubated for 24 hours in the presence or absence of different concentrations of the S. marinoï polar extract. As a positive control of anti-inflammatory activity, NHEK cells were also pre-incubated in the presence of bafilomycin (100 nM). After this pre-incubation, the treatments were renewed and the NHEK cells are then incubated for 24 hours in the presence of poly (I:C) for inducing inflammation. A control condition without inflammation inducer (unstimulated control) was performed in parallel. After incubation, the culture supernatant was collected to determine the level of keratinocyte inflammation by ELISA by measuring the amounts of IL-6 secreted.

[2] = tested on: normal human epidermal keratinocytes (NHEK); assay: cell viability (WST-8) of Poly(I:C)-stimulated keratinocytes; conditions: NHEK stimulated with Poly(I:C) 1 µg/mL + Bafilomycin 100 nM
Procedure: The anti-inflammatory properties of S. marinoï polar algae extract were evaluated on normal human epidermal keratinocytes (NHEK)
as §1, with “These” for “The anti-inflammatory properties of S. marinoï polar algae extract were evaluated on normal human epidermal keratinocytes (NHEK) These”, “parallel.” for “parallel. After incubation, the culture supernatant was collected to determine the level of keratinocyte inflammation by ELISA by measuring the amounts of IL-6 secreted.”

[3] = tested on: human sebocytes of the SEBO662AR line; assay: anti-lipogenic effect: total lipids (BODIPY probe) in stimulated sebocytes; conditions: cells stimulated with lipogenic mixture containing androgens + Cerulenin 10 µM
Procedure: The effect of S. marinoï polar algae extract on the overproduction of lipids was studied on human sebocytes of the SEBO662AR line (BIOALTERNATIVES line) stimulated by lipogenic and androgenic factors.
SEBO662AR human sebocytes were first cultured at 37° C. in the presence of 5% CO2 and antibiotics in a dedicated culture medium. After at least one day of culturing, lipogenesis is induced in the SEBO662AR cells by their incubation in the presence of lipogenic and androgenic factors. The cells are then incubated in the presence or in the absence of 3 distinct concentrations of the polar extract. As a positive control of lipogenesis inhibitory activity, the SEBO662AR cells are incubated in the presence of cerulenin. At the end of the incubation period, the total lipids are fluorescently labelled, and the inhibition of lipogenesis is determined for each condition.

Structure (SMILES)	IL6 [1] [pg/mL]	Cell viability (WST-8) [2]	Lipids (BODIPY® probe) Fluorescence intensity /Number of nuclei [3]	Stimulation % [3] [%]
CO/C1=C\C(C)=C\[C@@H](C)[C@@H](O)[C@@H](C)C/C(C)=C/C=C/[C@H](OC)[C@@H]([C@@H](C)[C@@H](O)[C@H](C)[C@@]2(O)C[C@@H](O)[C@H](C)[C@@H](C(C)C)O2)OC1=O [Bafilomycin, bafilomycin]	13	100	–	–
C/C=C/C/C=C/CCC(=O)[C@H]1O[C@H]1C(N)=O [Cerulenin, cerulenin]	–	–	188 853^∗∗	63
